In brackets after ≈: the same amount, converted by molar mass.
Legend:
N. gonorrhoeae H041 = assay: Liquid broth MIC in Fastidious broth; format: cell-based; details: Neisseria gonorrhoeae, H041, read-out: Minimum Inhibitory Concentration, N. gonorrhoeae H041
Experimental: (§1) Example V: In Vitro Antibacterial Assays for N. gonorrhoeae Strains
(§2) Additional antibacterial testing of the series was performed in 8 reference strains of N. gonorrhoeae (ATCC 49226, FA1090, WHO G, WHO L, WHO K, H041, WHO Z, and WHO Q). ATCC 49226, FA1090, WHO G, and WHO L produce wild type or wild-type like PBP2. WHO K, H041, WHO Z, and WHO Q produce mosaic PBP2. Liquid broth-based assays were used for antibacterial testing of PBP inhibitors in Neisseria gonorrhoeae. Briefly, cryo-preserved bacterial cultures of clinical strains were streaked for isolation on Chocolate Agar (72 g/L (2×) GC Agar Base (BD #228950) and 2% (2×) Hemoglobin was autoclaved at 121° C. for 20 minutes to sterilize. Once cooled to ˜50° C. the 2× GC Agar Base and 2× Hemoglobin solutions are combined and 1% IsoVitaleX Enrichment (BD #211876) was added to the solution). Strains were incubated at 36° C. and 5% CO2 to allow growth of colonies, 24 hours before inoculum preparation. 2-fold serial dilutions of test compounds were conducted in a 96 well plate with a final volume of 75 μL per well at 2-fold the final desired concentration in Fastidious broth (Remel #R07664). For preparation of assay inoculum, a direct suspension was prepared by aseptically swabbing all colonies from agar plates into culture tubes containing 2 mL of fresh sterile saline. After the dilution plates were set up, direct suspensions were then diluted in a cuvette containing sterile saline and the optical density was measured at 600 nm. Inocula were diluted such that 75 μL of this culture in Fastidious broth results in a starting bacterial concentration of 5×10^5 CFU/mL when added to the dilution plates. The plates were incubated for ˜24 hours at 36° C. and 5% CO2. The MIC was read visually as the lowest concentration well with <10% bacterial growth compared to wells of full growth.

N. gonorrhoeae FA1090 = assay: Liquid broth MIC in Fastidious broth; format: cell-based; details: Neisseria gonorrhoeae; N. gonorrhoeae strain FA1090; Fastidious broth; read-out: Minimum Inhibitory Concentration, N. gonorrhoeae FA1090
Experimental: as §1, §2

N. gonorrhoeae WHO G = assay: Liquid broth MIC in Fastidious broth; format: cell-based; details: Neisseria gonorrhoeae; N. gonorrhoeae strain WHO G; Fastidious broth; read-out: Minimum Inhibitory Concentration, N. gonorrhoeae WHO G
Experimental: as §1, §2

N. gonorrhoeae WHO Z = assay: Liquid broth MIC in Fastidious broth; format: cell-based; details: Neisseria gonorrhoeae, read-out: Minimum Inhibitory Concentration, N. gonorrhoeae WHO Z
Experimental: as §1, §2

N. gonorrhoeae WHO L = assay: Liquid broth MIC in Fastidious broth; format: cell-based; details: Neisseria gonorrhoeae; N. gonorrhoeae strain WHO L; Fastidious broth; read-out: Minimum Inhibitory Concentration, N. gonorrhoeae WHO L
Experimental: as §1, §2

N. gonorrhoeae WHO K = assay: Liquid broth MIC in Fastidious broth; format: cell-based; details: Neisseria gonorrhoeae, read-out: Minimum Inhibitory Concentration, N. gonorrhoeae WHO K
Experimental: as §1, §2

[1] = system: N. gonorrhoeae ATCC 49226; assay: Liquid broth MIC in Fastidious broth; format: cell-based; details: Neisseria gonorrhoeae, ATCC49226; N. gonorrhoeae strain ATCC 49226; Fastidious broth; read-out: Minimum Inhibitory Concentration, N. gonorrhoeae ATCC 49226
Experimental: as §1, §2

E. coli K12 PBP3 = biological target: T1, E. coli K12 PBP3 (Escherichia coli, UniProt P0AD68); assay: biochemical; format: binding
T1 construct: made in house
T1 sequence (P0AD68 1-577): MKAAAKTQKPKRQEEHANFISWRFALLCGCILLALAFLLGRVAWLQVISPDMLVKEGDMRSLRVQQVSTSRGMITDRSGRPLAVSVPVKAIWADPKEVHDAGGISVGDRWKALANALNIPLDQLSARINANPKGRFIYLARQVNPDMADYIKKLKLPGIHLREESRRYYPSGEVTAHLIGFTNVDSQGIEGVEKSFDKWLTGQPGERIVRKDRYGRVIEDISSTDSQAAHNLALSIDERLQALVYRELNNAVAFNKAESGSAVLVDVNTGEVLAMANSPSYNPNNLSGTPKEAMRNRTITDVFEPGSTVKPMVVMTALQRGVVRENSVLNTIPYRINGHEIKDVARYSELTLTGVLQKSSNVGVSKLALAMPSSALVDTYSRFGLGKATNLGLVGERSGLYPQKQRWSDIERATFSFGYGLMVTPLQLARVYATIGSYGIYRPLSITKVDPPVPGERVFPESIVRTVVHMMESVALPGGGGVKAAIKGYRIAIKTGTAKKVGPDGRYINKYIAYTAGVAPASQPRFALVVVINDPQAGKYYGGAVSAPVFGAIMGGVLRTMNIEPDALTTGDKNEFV
How it was run: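 A. baumannii PBP2 (2.5 μM) and PBP3 (0.2 μM) were run in 25 mM Tris pH 8.0 buffer with Tween 20; E. coli PBP3 (1.5 μM) and N. gonorrhoeae PBP2 ([…]) in 50 mM Hepes pH 8.0 buffer.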

[2] = Bocillin-FL fluorescence polarization competition binding assay, A. baumannii PBP3; details: fluorescence polarization competition binding assay using Bocillin-FL; column 3; read-out: 4. baumannii PBP1a Potency
Description: (§3) Example I: Experimental Method for Penicillin-Binding Protein Binding Assays with Bocillin-FL Via Fluorescence Polarization
(§4) To determine the ability of boronic acid-based test PBP inhibitors to bind Penicillin Binding Proteins (PBPs), Bocillin-FL (fluorescently-labeled penicillin V; ThermoFisher Scientific) was used in a fluorescence polarization (FP) competition binding assay to assess inhibitor binding to PBP2, PBP3 or PBP4 from Escherichia coli (K12), PBP3 from Pseudomonas aeruginosa (PA01), PBP1a, PBP2 and PBP3 from Acinetobacter baumannii (ATCC 19606), and PBP2 from Neiserria gonorrheae (FA19). PBPs were cloned and purified as described previously (E. coli PBPs, King, D. T, et al., ACS Infectious Diseases 2015, 1, 175-184; P. aeruginosa PBP3, Han et. al., PNAS 2010, 107 (51), 22002-22007; A. baumannii PBPs, Penwell et. al., Antimicrob. Agents Chemother. 2015, 59 (3), 1680-1689; N. gonorrhoeae PBP2, Singh et. al., J Biol. Chem. 2019, 294 (38), 14020-14032). To establish assay conditions for competition binding, enzyme titration/saturation binding experiments were initially performed. Bocillin-FL was prepared at 0.2 μM in a buffer comprised of 50 mM Hepes (pH 8.0), 300 mM NaCl and 5% (v/v) glycerol for reactions with E. coli, P. aeruginosa and N. gonorrhoeae PBPs, and 25 mM Tris (pH 8.0), 200 mM NaCl and 10% (v/v) glycerol and 0.005% (v/v) Tween 20 for reactions with A. baumannii PBPs. Saturation binding was performed by mixing 40 μl of PBP solutions ranging in concentrations from 0-24 μM with 40 μl of the 0.2 μM Bocillin-FL solution, in individual wells of a black 384-well microplate. FP was measured immediately upon mixing (Excitation, 490 nm; Emission, 520 nm; g-factor, 0.96), using a Cytation3 (BioTek) microplate reader and measured continuously for up to 120 minutes. […] The competition binding assay (80 μl final volume) was validated using beta-lactams and PBPs at final concentrations of: 1.5 μM, E. coli PBP3; 0.75 μM, P. aeruginosa PBP3; 1 μM A. baumannii PBP1a; 2.5 μM A. baumannii PBP2; 0.2 μM A. baumannii PBP3; and […] N. gonorrhoeae PBP2. Bocillin-FL was at 0.1 μM (0.05 μM with A. baumannii PBP1a) and beta-lactam concentrations ranged from 0-1000 μM. […] Bocillin-FL was added and the FP immediately measured for up to 60 minutes (90 minutes for E. coli PBP2). […] The beta-lactam potency was reported as the concentration of beta-lactam required to reduce the amount of PBP bound-Bocillin-FL by 50% (EC50). […] Binding assays for boronic acid PBP inhibitors were performed in an identical fashion for the respective PBPs

P. aeruginosa PBP3 = biological target: T2, P. aeruginosa PBP3 (Pseudomonas aeruginosa, UniProt G3XD46); assay: Bocillin-FL fluorescence polarization competition binding assay, P. aeruginosa PBP3; details: fluorescence polarization competition binding assay using Bocillin-FL
T2 construct: made in house
T2 sequence (G3XD46 whole entry): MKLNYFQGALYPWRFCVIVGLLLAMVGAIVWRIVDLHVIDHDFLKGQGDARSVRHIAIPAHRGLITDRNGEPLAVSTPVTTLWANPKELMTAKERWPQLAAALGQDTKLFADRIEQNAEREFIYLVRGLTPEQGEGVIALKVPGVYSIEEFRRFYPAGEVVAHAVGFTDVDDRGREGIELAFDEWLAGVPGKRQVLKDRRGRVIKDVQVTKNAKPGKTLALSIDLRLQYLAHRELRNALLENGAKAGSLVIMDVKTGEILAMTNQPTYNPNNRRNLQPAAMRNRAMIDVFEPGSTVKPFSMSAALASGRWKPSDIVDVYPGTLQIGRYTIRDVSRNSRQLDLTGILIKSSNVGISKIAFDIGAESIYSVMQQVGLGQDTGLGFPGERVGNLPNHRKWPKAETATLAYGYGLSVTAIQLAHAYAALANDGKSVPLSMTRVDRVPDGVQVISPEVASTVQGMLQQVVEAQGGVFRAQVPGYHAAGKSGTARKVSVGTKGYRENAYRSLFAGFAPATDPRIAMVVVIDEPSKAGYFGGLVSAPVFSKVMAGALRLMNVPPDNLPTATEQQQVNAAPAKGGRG
How it was run: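 Inhibitor competition with Bocillin-FL for P. aeruginosa PBP3 was followed by fluorescence polarization on a Cytation3 (BioTek) reader, using g-factor 0.96, 490 nm excitation and 520 nm emission. The enzyme was at 0.75 μM and the probe at 0.1 μM in Hepes/NaCl/glycerol buffer, 80 μl per well. FP was recorded immediately after probe addition for up to 60 minutes. Potency was expressed as EC50, the concentration that reduces bound probe by 50%.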

A. baumannii ATCC 19606 = assay: Broth microdilution MIC in CAMHB; format: cell-based; details: Acinetobacter baumannii, ATCC19606; MHB; read-out: Minimum Inhibitory Concentration, A. baumannii ATCC 19606
How it was run: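 Per CLSI broth microdilution, colonies were grown 3-5 h at 37° C in cation-adjusted Mueller Hinton broth, then diluted to a starting inoculum of 2-8×10^5 CFU/mL against 2-fold serial compound dilutions. Plates were incubated 16-20 h at 37° C, and MIC was read visually as the lowest concentration with no growth.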

[3] = system: K. pneumoniae UMM producing SHV-5 and KPC-2; assay: Broth microdilution MIC in CAMHB; format: cell-based; details: Klebsiella pneumoniae, read-out: Minimum Inhibitory Concentration, K. pneumoniae UMM
How it was run: (§5)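 CLSI microdilution; CAMHB; inoculum 2-8×10^5 CFU/mL from 3-5 h 37° C culture; 2-fold compound series; 16-20 h, 37° C; MIC = lowest well without visible growth.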

[4] = system: K. pneumoniae SI-117 producing VIM-1; assay: Broth microdilution MIC in CAMHB; format: cell-based; details: Klebsiella pneumoniae, read-out: Minimum Inhibitory Concentration, K. pneumoniae SI-117
How it was run: as §5

E. coli AG100 = assay: Broth microdilution MIC in CAMHB; format: cell-based; details: Escherichia coli; E. coli AG100 (wild-type parent); MHB; read-out: Minimum Inhibitory Concentration, E. coli AG100
How it was run: as §5

E. coli ATCC 25922 = assay: Broth microdilution MIC in CAMHB; format: cell-based; details: Escherichia coli, ATCC25922; E. coli ATCC 25922; MHB; read-out: Minimum Inhibitory Concentration, E. coli 25922
How it was run: as §5

[5] = system: P. aeruginosa (ΔmexAB-oprM); assay: Broth microdilution MIC in CAMHB; format: cell-based; details: Pseudomonas aeruginosa, read-out: Minimum Inhibitory Concentration, P. aeruginosa ΔmexAB-OprM
How it was run: as §5

E. coli AG100A = assay: Broth microdilution MIC in CAMHB; format: cell-based; details: Escherichia coli, read-out: Minimum Inhibitory Concentration, E. coli AG100A
How it was run: as §5

E. coli D22 = assay: Broth microdilution MIC in CAMHB; format: cell-based; details: Escherichia coli; E. coli D22 (hyper-permeable); MHB; read-out: Minimum Inhibitory Concentration, E. coli D22
How it was run: as §5

[6] = system: K. pneumoniae 848844 producing SHV-11 and KPC-2; assay: Broth microdilution MIC in CAMHB; format: cell-based; details: Klebsiella pneumoniae, read-out: Minimum Inhibitory Concentration, K. pneumoniae 848844
How it was run: as §5

E. coli 901C = assay: Broth microdilution MIC in CAMHB; format: cell-based; details: Escherichia coli; E. coli 901C (hyper-permeable); MHB; read-out: Minimum Inhibitory Concentration, E. coli 901C
How it was run: as §5

P. aeruginosa ATCC 35151 = assay: Broth microdilution MIC in CAMHB; format: cell-based; details: Pseudomonas aeruginosa, ATCC35151; MHB; hyper-permeable strain; read-out: Minimum Inhibitory Concentration, P. aeruginosa ATCC 35151
How it was run: as §5

P. aeruginosa ATCC 27853 = assay: Broth microdilution MIC in CAMHB; format: cell-based; details: Pseudomonas aeruginosa, ATCC27853; MHB; read-out: Minimum Inhibitory Concentration, P. aeruginosa ATCC 27853
How it was run: as §5

N. gonorrhoeae PBP2 = biological target: T3, N. gonorrhoeae PBP2 (Neisseria gonorrhoeae, UniProt P08149); assay: Bocillin-FL fluorescence polarization competition binding assay, N. gonorrhoeae PBP2; details: N. gonorrhoeae PBP2; assay validation with beta-lactams; read-out: EC50 (concentration of beta-lactam required to reduce the amount of PBP bound-Bocillin-FL by 50%)
T3 construct: made in house
T3 sequence (P08149 whole entry): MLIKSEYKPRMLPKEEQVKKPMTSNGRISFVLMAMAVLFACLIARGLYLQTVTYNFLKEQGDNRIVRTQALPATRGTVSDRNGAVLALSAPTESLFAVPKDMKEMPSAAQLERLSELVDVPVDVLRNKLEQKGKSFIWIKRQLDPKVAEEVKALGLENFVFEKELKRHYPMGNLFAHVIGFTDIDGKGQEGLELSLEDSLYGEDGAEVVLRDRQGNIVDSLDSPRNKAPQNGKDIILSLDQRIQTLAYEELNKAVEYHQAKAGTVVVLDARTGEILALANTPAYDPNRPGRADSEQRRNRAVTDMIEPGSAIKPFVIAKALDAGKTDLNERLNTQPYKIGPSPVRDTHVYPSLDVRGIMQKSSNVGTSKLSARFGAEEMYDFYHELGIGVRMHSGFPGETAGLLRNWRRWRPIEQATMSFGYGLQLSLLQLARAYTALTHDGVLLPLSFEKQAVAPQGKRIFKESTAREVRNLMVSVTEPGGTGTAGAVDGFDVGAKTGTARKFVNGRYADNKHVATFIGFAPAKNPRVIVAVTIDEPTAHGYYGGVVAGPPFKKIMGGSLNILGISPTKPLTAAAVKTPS
Description: as §3, §4

Structure (SMILES): CC(C)(C)[C@@H](NC(=O)c1c(F)cc(O)c(O)c1Cl)C(=O)N[C@H]1Cc2ccc(F)c(C(=O)O)c2OB1O [Example 12, (R)-3-((R)-2-(2-chloro-6-fluoro-3,4-dihydroxybenzamido)-3,3-dimethylbutanamido)-7-fluoro-2-hydroxy-3,4-dihydro-2H-benzo[e][1,2]oxaborinine-8-carboxylic acid]
- MIC (N. gonorrhoeae H041): > 64 µg/mL
- MIC (N. gonorrhoeae FA1090): > 64 µg/mL
- MIC (N. gonorrhoeae WHO G): > 64 µg/mL
- MIC (N. gonorrhoeae WHO Z): > 64 µg/mL
- MIC (N. gonorrhoeae WHO L): > 64 µg/mL
- MIC (N. gonorrhoeae WHO K): > 64 µg/mL
- MIC [1]: > 64 µg/mL
- EC50 (E. coli K12 PBP3): 30 to 500 µM

Structure (SMILES): NCCCN1CCN(C(=O)N[C@@H](C(=O)N[C@H]2Cc3cccc(C(=O)O)c3OB2O)c2ncc(O)cc2F)C(=O)C1=O [Example 13, (R)-3-((R)-2-(4-(3-aminopropyl)-2,3-dioxopiperazine-1-carboxamido)-2-(3-fluoro-5-hydroxypyridin-2-yl)acetamido)-2-hydroxy-3,4-dihydro-2H-benzo[e][1,2]oxaborinine-8-carboxylic acid]
- EC50 [2]: < 10 µM
- P. aeruginosa PBP3 Potency (P. aeruginosa PBP3): D (D represents a potency <10 μM)
- MIC (A. baumannii ATCC 19606): > 128 µg/mL
- MIC [3]: 8 to 16 µg/mL (≈ 14 to 28 µM)
- MIC [4]: 8 to 16 µg/mL (≈ 14 to 28 µM)
- MIC (E. coli AG100): 8 to 16 µg/mL (≈ 14 to 28 µM)
- MIC (E. coli ATCC 25922): 8 to 16 µg/mL (≈ 14 to 28 µM)
- MIC [5]: 2 to 4 µg/mL (≈ 3.49 to 6.99 µM)
- MIC (E. coli AG100A): 0.5 to 1 µg/mL (≈ 0.874 to 1.75 µM)
- MIC (E. coli D22): 2 to 4 µg/mL (≈ 3.49 to 6.99 µM)
- MIC [6]: 32 to 64 µg/mL (≈ 55.9 to 112 µM)
- MIC (E. coli 901C): 0.5 to 1 µg/mL (≈ 0.874 to 1.75 µM)
- MIC (P. aeruginosa ATCC 35151): < 0.25 µg/mL
- MIC (P. aeruginosa ATCC 27853): 32 to 64 µg/mL (≈ 55.9 to 112 µM)
- EC50 (E. coli K12 PBP3): < 30 µM

Structure (SMILES): C=CC1=C(C(=O)O)N2C(=O)[C@@H](NC(=O)/C(=N\OCC(=O)O)c3csc(N)n3)[C@H]2SC1 [cefixime, reference compound]
- EC50 (N. gonorrhoeae PBP2): 0.26 µM
